Several values for one entry are separate records, joined by “and”; a condition that tells them apart may be missing. Identical values can stand only once. Marks after values point to notes of the source that are not given here.
Legend:
deoxyMb = experiment: Direct transfer of NO to deoxyMb yielding MbNO (UV–vis); format: biochemical; details: deoxyMb 5 μM/Cys 200 μM, generated [(NO)2Fe(SR)(SCys)]n−, phosphate buffer (pH 7.4), anaerobic
Protocol: (§1) After addition of 30 μL of 500 μM stock solution of DNIC–COOH (in DMSO) to a 4 mL quartz cuvette containing 5 μM metMb and 200 μM Cys in 3 mL of 25 mM PBS (pH 7.4), UV–vis spectra for this mixture solution were measured every 30 min. Transformation of […] into MbNO was achieved after reaction for 4 h based on the complete shift of UV–vis absorption bands from (410, 502, and 629) nm to (419, 548, and 578) nm.
(§2) Reactions of (a) 5 μM of DNIC–COOMe with 5 μM of metMb in the presence of 200 μM of Cys, (b) 5 μM of DNIC–COOH/DNIC–COOMe with 5 μM of deoxyMb in the presence of 200 μM of Cys, and (c) 5 μM of DNIC–COOH/DNIC–COOMe with 5 μM of metMb in the presence of 50 mg/mL BSA were performed under a similar manner.

metMb = target: T1, metMb (Equus caballus, UniProt P68082); experiment: Transfer of NO− to metMb yielding MbNO (UV–vis); format: biochemical; details: for reaction time for complete conversion of metMb into MbNO: metMb 5 μM/Cys 200 μM, generated [(NO)2Fe(SR)(SCys)]n−, phosphate buffer (pH 7.4), anaerobic; for change of UV–vis absorption bands of metMb (NO−-transfer): metMb in the presence of BSA (50 mg/mL)
T1 construct: purchased Sigma
T1 sequence (P68082 2-154 limits assumed): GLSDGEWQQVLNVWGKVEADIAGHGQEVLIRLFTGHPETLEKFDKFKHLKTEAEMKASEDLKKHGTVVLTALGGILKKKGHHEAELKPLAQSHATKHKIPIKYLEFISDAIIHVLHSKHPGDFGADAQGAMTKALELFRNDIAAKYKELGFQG
Protocol: as §1, §2

N2a = experiment: Whole-cell EPR: cellular uptake and intracellular formation/decomposition of mononuclear DNIC in N2a; format: cell-based, mouse; details: for tmax for cellular uptake and intracellular transformation (whole-cell EPR): normoxia, 100 μM DNIC–COOH or 10 μM DNIC–COOMe
Protocol: (§3) Cellular uptake of DNIC–COOH and intracellular formation/decomposition of mononuclear DNICs in MSC/N2a/HCEC cells were investigated using EPR spectroscopy. Briefly, cells were seeded into two (or one) 100 mm dish(es) at a density of 2 × 10^6 cells/dish and incubated at 37 °C overnight. On the next day, cells were treated with 100 μM of DNIC–COOH (or 100 μM of DNIC–COOH to N2a and 75 μM of DNIC–COOH to HCEC) and incubated for 0, 0.5, 1, 2, 3, 4, 8, and 24 h, respectively. After removal of the supernatant solution, cells were washed with DPBS before addition of 1 mL of trypsin (0.05%)/EDTA (0.53 mM) and incubation for 5 min at 37 °C. After the obtained cell suspension solutions from two 100 mm dishes were combined and centrifuged at 100g for 5 min, the supernatant was removed before addition of 100 μL of αMEM to DNIC-treated MSC (or MEM to DNIC-treated N2a and HSFM to DNIC-treated HCEC). This solution was then transferred into EPR quartz tube and frozen in N2(l) before the EPR measurements. For each measured EPR spectrum, double integration was executed to obtain the integrated EPR intensity under each condition. Moreover, time-dependent decay of integrated EPR signal intensity after treatment of DNIC–COOH was fit to pseudo-first-order kinetics in order to determine the intracellular half-life for EPR-active mononuclear DNIC. Three independent experiments were executed to measure the average half-life for intracellular decomposition of EPR-active mononuclear DNIC after treatment with DNIC–COOH at 37 °C. On the other hand, at the time point with maximum integrated EPR signal intensity, spin quantitation of intracellular EPR-active DNICs was performed using mononuclear DNIC [PPN][(NO)2Fe(S5)] as a standard according to the methodology used in the previous work.[50] Cellular uptake of DNIC–COOMe (2.5 μM to MSC, 10 μM to N2a, or 1 μM to HCEC) and intracellular formation/decomposition of EPR-active mononuclear DNICs were investigated using EPR spectroscopy in a similar manner.
Studies of cellular uptake mechanisms were investigated using EPR spectroscopy in combination with pretreatments of alternative inhibitors. After the MSC cells were seeded into two (or one) 100 mm dish(es) at a density of 2 × 10^6 cells/dish and incubated at 37 °C overnight, sequential treatments of 50 μM of NEM for 0.5 h and 100 μM of DNIC–COOH for 2 h were performed before the treated MSC cells were collected for EPR measurement following the procedure described above. […]

MSC/N2a/HCEC = experiment: Whole-cell EPR, results stated jointly for MSC/N2a/HCEC; format: cell-based; details: for tmax for cellular uptake: stated jointly for MSC/N2a/HCEC
Protocol: as §3, with “manner. […]” for “manner.”

MSC = experiment: Cytoprotection of MSC against H2O2 oxidative stress (CCK-8, live/dead); format: cell-based, human; details: MSC pretreated 8 h (100 μM DNIC–COOH or 2.5 μM DNIC–COOMe), then 250 μM H2O2 24 h
Protocol: Cell viability study of MSC, N2a, and HCEC cells with or without the treatment of DNIC–COOH was performed using a Cell Counting Kit-8 (IMT Formosa New Materials Co., Ltd., Taiwan) according to the manufacturer’s protocol. Briefly, cells were seeded into a 96-well plate at a density of 4 × 10^3 cells/well for MSC, 1 × 10^4 cells/well for N2a, and 8 × 10^3 cells/well for HCEC, respectively, and incubated overnight. On the next day, cells were treated with DNIC–COOH at different concentrations and incubated for 24 h. The culture medium was then removed before the cells were washed with DPBS. After addition of fresh medium containing CCK-8 solution to the cells and incubation for 1–3 h, the absorbance at 450 nm was then measured on a microplate reader (SpectraMax iD3, Molecular Devices, San Jose, CA) with a reference wavelength of 650 nm. […]
To investigate the capacity of DNIC preconditioning to protect the MSC cells against elevated oxidative stress, cells were pretreated with 2.5 μM of DNIC–COOMe or 100 μM of DNIC–COOH for 8 h before being incubated with 250 μM H2O2 for another 24 h. Cell viability was evaluated by live/dead staining or CCK-8 assay. In a similar manner, DNIC-induced cytoprotective effect in HCECs was evaluated through pretreatment of 1 μM of DNIC–COOMe or 75 μM of DNIC–COOH for 24 h.

Compound	reaction time for complete conversion of deoxyMb into MbNO (deoxyMb)	reaction time for complete conversion of deoxyMb into MbNO (deoxyMb; listed as DNIC-COOH)	reaction time for complete conversion of metMb into MbNO (metMb)	reaction time for complete conversion of metMb into MbNO (metMb; listed as DNIC-COOH)	change of UV–vis absorption bands of metMb (NO−-transfer) (metMb)	relative whole-cell EPR signal intensity at gav = 2.03 (control = 100%) (N2a; CPZ-treated N2a)	relative whole-cell EPR signal intensity at gav = 2.03 (control = 100%) (N2a; MβCD-treated N2a)	tmax for cellular uptake and intracellular transformation (whole-cell EPR) (N2a; N2a)	tmax for cellular uptake (MSC/N2a/HCEC)	survival rate (MSC)	reaction time for complete conversion of deoxyMb into MbNO (deoxyMb; listed as DNIC-COOMe)	reaction time for complete conversion of metMb into MbNO (metMb; listed as DNIC-COOMe)	relative whole-cell EPR signal intensity at gav = 2.03 (control = 100%) (N2a; N2a, native FBS replaced with 5% NEM-treated FBS)	relative whole-cell EPR signal intensity at gav = 2.03 (control = 100%) (N2a; N2a, pretreatment of NEM 0.5 h, then DNIC–COOMe 0.5 h, reduction)	tmax for intracellular assembly of mononuclear DNICs (MSC/N2a/HCEC; MSC/N2a/HCEC, hypoxia)
O=[N][Fe]1([N]=O)[SH](CCC(=O)O)[Fe]([N]=O)([N]=O)[SH]1CCC(=O)O (stereo not drawn) [DNIC–COOH, [(NO)2Fe(μ-SCH2CH2COOH)2Fe(NO)2]]	3.5 ^f h	3.5 h	4 h and 4.0 ^f h	4.0 h	no change	77.6 ± 22.5%	81.7 ± 18.2%	2 h	2 to 8 h	58.7%	–	–	–	–	–
COC(=O)CC[SH]1[Fe]([N]=O)([N]=O)[SH](CCC(=O)OC)[Fe]1([N]=O)[N]=O (stereo not drawn) [DNIC–COOMe, [(NO)2Fe(μ-SCH2CH2COOCH3)2Fe(NO)2]]	2.0 ^f h	–	4.0 ^f h	–	no change	–	–	0.5 h	0.5 h	35.8%	2.0 h	4.0 h	116.2 ± 33.6%	20.1 ± 9.7%	30 min

Reference: article PMC11040670, “Mechanistic and Kinetic Insights into Cellular Uptake of Biomimetic Dinitrosyl Iron Complexes and Intracellular Delivery of NO for Activation of Cytoprotective HO-1” (JACS Au, 2024)
